# Results taken from patent publication US20050095240A1, “NaCT as a target for lifespan expansion and weight reduction” (Medical College of Georgia Research, priority 2002, published 2005).
# Tests used:
# ceNaCT = target: T1, ceNaCT (Caenorhabditis elegans, UniProt P32739, I91S/L182M); assay: ceNaCT in X. laevis oocytes: uptake and two-electrode voltage clamp; type: cell-based
# T1 sequence (P32739 1-551 I91S/L182M): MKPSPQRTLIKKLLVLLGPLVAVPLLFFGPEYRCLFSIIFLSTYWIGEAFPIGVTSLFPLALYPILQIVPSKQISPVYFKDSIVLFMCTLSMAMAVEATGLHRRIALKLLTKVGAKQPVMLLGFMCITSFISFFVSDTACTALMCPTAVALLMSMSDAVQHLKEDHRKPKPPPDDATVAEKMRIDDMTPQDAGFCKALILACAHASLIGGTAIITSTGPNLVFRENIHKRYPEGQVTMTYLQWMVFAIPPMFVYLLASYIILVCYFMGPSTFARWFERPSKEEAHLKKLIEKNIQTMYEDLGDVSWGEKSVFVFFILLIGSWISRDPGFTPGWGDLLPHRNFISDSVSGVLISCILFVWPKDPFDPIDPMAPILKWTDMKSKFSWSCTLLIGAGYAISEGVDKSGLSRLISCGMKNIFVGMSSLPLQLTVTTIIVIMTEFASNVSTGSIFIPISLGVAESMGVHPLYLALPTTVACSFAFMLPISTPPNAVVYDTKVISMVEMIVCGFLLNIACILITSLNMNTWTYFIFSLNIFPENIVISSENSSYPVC
# From the text: Electrophysiological studies of ceNaCT transport activity. Initially, ceNaCT cRNA prepared from the pSPORT-ceNaCT cDNA construct was used for functional expression of the transporter in X. laevis oocytes. These initial attempts were unsuccessful. Therefore, a X. laevis oocyte expression vector was used. The coding sequence of ceNaCT cDNA was amplified by PCR using the following primers: 5′-[…]-3′ (SEQ ID NO:23) (forward primer) and 5′-[…]-3′ (SEQ ID NO:24) (reverse primer). The forward primer contained the start codon and also an Xma I site introduced at the 5′-end for the purpose of subcloning. The reverse primer contained the termination codon and also a BamH I site at the 5′end for the purpose of subcloning. The PCR-derived ceNaCT coding fragment was then inserted into the Xma I/BamH I site in the oocyte expression vector pGHl9.
# rat NaDC3 = target: T2, rat NaDC3 (Rattus norvegicus, UniProt Q9Z0Z5); settings: medium with 135 μM citrate and 40 μM succinate
# T2 sequence (Q9Z0Z5 1-600): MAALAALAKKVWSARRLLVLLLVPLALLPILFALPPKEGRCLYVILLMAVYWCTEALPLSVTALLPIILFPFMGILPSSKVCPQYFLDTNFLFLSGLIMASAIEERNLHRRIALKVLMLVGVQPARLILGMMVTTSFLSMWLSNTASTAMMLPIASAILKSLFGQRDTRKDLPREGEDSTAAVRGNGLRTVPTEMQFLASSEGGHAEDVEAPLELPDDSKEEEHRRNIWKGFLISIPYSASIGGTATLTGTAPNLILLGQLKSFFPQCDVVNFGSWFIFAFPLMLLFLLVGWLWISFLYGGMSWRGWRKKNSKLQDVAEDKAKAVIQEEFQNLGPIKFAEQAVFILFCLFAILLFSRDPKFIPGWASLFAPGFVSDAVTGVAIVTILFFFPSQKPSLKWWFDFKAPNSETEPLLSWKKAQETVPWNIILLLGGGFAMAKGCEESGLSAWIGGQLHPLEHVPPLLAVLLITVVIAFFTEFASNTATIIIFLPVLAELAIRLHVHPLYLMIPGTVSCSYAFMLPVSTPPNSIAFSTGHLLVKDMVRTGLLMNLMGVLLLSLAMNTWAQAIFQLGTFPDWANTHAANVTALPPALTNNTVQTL
SMILES,"Uptake in cRNA-injected vs water-injected oocytes (ceNaCT; citrate 40 μM, pH 6.5)","Uptake of [^14C]citrate in ceNaCT cRNA-injected oocytes (ceNaCT; citrate 40 μM, pH 6.5)","pH-dependent stimulation, pH 7.5 to 6.5 (ceNaCT; citrate 250 μM)",Maximal current (Imax) (ceNaCT; testing membrane potential −50 mV),"K0.5, concentration of citrate for half-maximal current (ceNaCT; testing membrane potential −70 mV, pH 6.5)",Maximal current (Imax) (ceNaCT; testing membrane potential −150 mV),Succinate uptake at physiological concentrations (rat NaDC3)
O=C(O)CC(O)(CC(=O)O)C(=O)O [Citrate],about 45 fold,12.9±0.8 pmol/oocyte/15 min,about 1.25 fold,12.3±0.6 nA,34 ± 8 µM,61.1±2.6 nA,
"O=C(O)CCC(=O)O [Succinate, succinate]",,,,,,,0.48±0.01 nmol/10^6 cells/minute
